Data taken from the supplement of paper PMC11061612.

Key:
[1] = compound: Cc1cc2ncnn2cc1Nc1ncc2c(n1)n(C1CCOCC1)c(=O)n2C [AZD7648]; settings: max 10 µM
Summary of the method: (§1)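 Following 24 hours at 37°C and 5% CO2, cancer cell lines in 1536-well plates with 7.5 μl DMEM/F12 or RPMI and 10% FBS were dosed for 72 hours, final DMSO typically being 0.2%. CellTiter-Glo 2.0 luminescence, scaled between blank-well and DMSO-well means, gave the viability readout. Dose responses were fitted to a two-parameter logistic curve with a non-linear mixed effects model, and the single-agent IC50 was derived from this fit.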

[2] = compound: C1CN(CCC1(C(=O)N[C@@H](CCO)C2=CC=C(C=C2)Cl)N)C3=NC=NC4=C3C=CN4 [AZD5363]; settings: max 10 µM
Summary of the method: as §1

[3] = compound: CCN(CCO)CCCOc1ccc2c(Nc3cc(CC(=O)Nc4cccc(F)c4)[nH]n3)ncnc2c1 [AZD2811]; settings: max 1 µM
Summary of the method: as §1

[4] = compound: C[C@@H](Nc1cc(F)cc(F)c1)c1cc(C(=O)N(C)C)cc2c(=O)cc(N3CCOCC3)oc12 [AZD8186]; settings: max 10 µM
Summary of the method: as §1

[5] = compound: N#Cc1cnc(Nc2cc(NC[C@H]3CNCCO3)c(C(F)(F)F)cn2)cn1 [SRA737]; settings: max 10 µM
Summary of the method: as §1

[6] = compound: CN(C)CCCOc1ccc(-c2ccc3ncc4c(c3c2)n(C2CCOCC2)c(=O)n4C)cn1 [AZD0156]; settings: max 3 µM
Summary of the method: as §1

[7] = compound: COc1nnc2ccc(N3CCC(c4ccc(OCCN5CCN(C)C(=O)[C@H]5C)cc4)CC3)nn12 [AZD5153]; settings: max 1 µM
Summary of the method: as §1

[8] = compound: CN(CC[C@H](CSC1=CC=CC=C1)NC2=C(C=C(C=C2)S(=O)(=O)NC(=O)C3=CC=C(C=C3)N4CCC(CC4)[C@H](C5=CC=CC=C5C6=CC=C(C=C6)Cl)O)S(=O)(=O)C(F)(F)F)CCO [AZD4320]; settings: max 1 µM
Summary of the method: as §1

[9] = compound: COc1cc([C@@H]2c3cc4c(cc3[C@@H](O[C@@H]3O[C@@H]5CO[C@@H](C)O[C@H]5[C@H](O)[C@H]3O)[C@H]3COC(=O)[C@H]23)OCO4)cc(OC)c1O [Etoposide]; settings: max 10 µM
Summary of the method: as §1

[10] = compound: COc1cc2ncnc(Nc3ccc(F)c(Cl)c3)c2cc1OCCCN1CCOCC1 [Gefitinib]; settings: max 10 µM
Summary of the method: as §1

[11] = compound: O=c1[nH]cc(F)c(=O)[nH]1 [5-Fluorouracil]; settings: max 20 µM
Summary of the method: as §1

[12] = compound: COc1cccc(OCCCN)c1-c1cc(Nc2cnc(C#N)cn2)n[nH]1 [Prexasertib]; settings: max 1 µM
Summary of the method: as §1

[13] = compound: O=C(c1cc(Cc2n[nH]c(=O)c3ccccc23)ccc1F)N1CCN(C(=O)C2CC2)CC1 [Olaparib]; settings: max 10 µM
Summary of the method: as §1

[14] = compound: CCc1c2c(nc3ccc(O)cc13)-c1cc3c(c(=O)n1C2)COC(=O)[C@]3(O)CC [SN-38]; settings: max 0.3 µM
Summary of the method: as §1

[15] = compound: CC(=O)Nc1cccc(-n2c(=O)n(C3CC3)c(=O)c3c(Nc4ccc(I)cc4F)n(C)c(=O)c(C)c32)c1 [Trametinib]; settings: max 1 µM
Summary of the method: as §1

[16] = compound: Nc1ccn([C@@H]2O[C@H](CO)[C@@H](O)C2(F)F)c(=O)n1 [Gemcitabine]; settings: max 0.3 µM
Summary of the method: as §1

[17] = compound: Cc1nc(-c2cn3c(n2)-c2ccc(-c4cnn(C(C)(C)C(N)=O)c4)cc2OCC3)n(C(C)C)n1 [Taselisib]; settings: max 10 µM
Summary of the method: as §1

[18] = compound: C[C@@H](c1ccc2nccn2c1)n1nnc2ncc(-c3cnn(C)c3)nc21 [Savolitinib]; settings: max 1 µM
Summary of the method: as §1

[19] = compound: Cc1c2c(nn1C)CSCc1cc(n(C)n1)CSc1cc(c3ccccc3c1)OCCCc1c(C(=O)O)n(C)c3c-2c(Cl)ccc13 [AZD5991]; settings: max 1 µM
Summary of the method: as §1

[20] = compound: CS(=O)(=O)CCNCc1ccc(-c2ccc3ncnc(Nc4ccc(OCc5cccc(F)c5)c(Cl)c4)c3c2)o1 [Lapatinib]; settings: max 10 µM
Summary of the method: as §1

[21] = compound: CC(=O)c1c(C)c2cnc(Nc3ccc(N4CCNCC4)cn3)nc2n(C2CCCC2)c1=O [Palbociclib]; settings: max 10 µM
Summary of the method: as §1

[22] = compound: NC1(c2ccc(-c3nc4ccn5c(=O)[nH]nc5c4cc3-c3ccccc3)cc2)CCC1 [MK-2206]; settings: max 10 µM
Summary of the method: as §1

[23] = compound: CC(=O)O[C@H]1C(=O)[C@@]2(C)[C@H]([C@H](OC(=O)c3ccccc3)[C@]3(O)C[C@H](OC(=O)[C@H](O)[C@@H](NC(=O)c4ccccc4)c4ccccc4)C(C)=C1C3(C)C)[C@]1(OC(C)=O)CO[C@@H]1C[C@@H]2O [Paclitaxel]; settings: max 3 µM
Summary of the method: as §1

[24] = compound: C[C@@H]1COCCN1C2=NC(=NC(=C2)C3(CC3)[S@](=N)(=O)C)C4=C5C=CNC5=NC=C4 [AZD6738]; settings: max 10 µM
Summary of the method: as §1

[25] = compound: CC1=C(C(=CC=C1)Cl)NC(=O)C2=CN=C(S2)NC3=CC(=NC(=N3)C)N4CCN(CC4)CCO [Dasatinib]; settings: max 2 µM
Summary of the method: as §1

[26] = compound: CC1(C)CCC(CN2CCN(c3ccc(C(=O)NS(=O)(=O)c4ccc(NCC5CCOCC5)c([N+](=O)[O-])c4)c(Oc4cnc5[nH]ccc5c4)c3)CC2)=C(c2ccc(Cl)cc2)C1 [Venetoclax]; settings: max 1 µM
Summary of the method: as §1

[27] = compound: O=C(Nc1ccc2[nH]nc(-c3ccncc3)c2c1)[C@@H]1CCN(CC(=O)N2CCN(c3ccc(-c4ncccn4)cc3)CC2)C1; settings: max 5 µM
Summary of the method: as §1

[28] = compound: COc1cccc2c1C(=O)c1c(O)c3c(c(O)c1C2=O)C[C@@](O)(C(=O)CO)C[C@@H]3O[C@H]1C[C@H](N)[C@H](O)[C@H](C)O1 [Doxorubicin]; settings: max 1 µM
Summary of the method: as §1

[29] = compound: C[C@@H](Oc1cc(-c2cnn(C3CCNCC3)c2)cnc1N)c1c(Cl)ccc(F)c1Cl [Crizotinib]; settings: max 10 µM
Summary of the method: as §1

[30] = compound: CC(C)n1c(=O)n(C)c2cnc3cc(F)c(-c4ccc(OCCCN5CCCCC5)nc4)cc3c21 [AZD1390]; settings: max 0.3 µM
Summary of the method: as §1

[31] = compound: C=CCn1c(=O)c2cnc(Nc3ccc(N4CCN(C)CC4)cc3)nc2n1-c1cccc(C(C)(C)O)n1 [AZD1775]; settings: max 3 µM
Summary of the method: as §1

[32] = compound: Cn1cnc2c(F)c(Nc3ccc(Br)cc3Cl)c(C(=O)NOCCO)cc21 [Selumetinib]; settings: max 10 µM
Summary of the method: as §1

[33] = compound: CC1=CN2[C@@H](C1)C=NC3=CC(=C(C=C3C2=O)OC)OCCCCCOC4=C(C=C5C(=C4)N=C[C@@H]6CC(=CN6C5=O)C)OC [SG3199]; settings: max 0.001 µM
Summary of the method: as §1

[34] = compound: C1CC(C1)(C(=O)[O-])C(=O)[O-].N.N.[Pt+2] [Carboplatin]; settings: max 10 µM
Summary of the method: as §1

[35] = compound: COc1cc(Nc2ncc3c(n2)-c2ccc(Cl)cc2C(c2c(F)cccc2OC)=NC3)ccc1C(=O)O [Alisertib]; settings: max 10 µM
Summary of the method: as §1

Row | Cell Line | IC50, cell viability 72 h [1] | IC50, cell viability 72 h [2] | IC50, cell viability 72 h [3] | IC50, cell viability 72 h [4] | IC50, cell viability 72 h [5] | IC50, cell viability 72 h [6] | IC50, cell viability 72 h [7] | IC50, cell viability 72 h [8] | IC50, cell viability 72 h [9] | IC50, cell viability 72 h [10] | IC50, cell viability 72 h [11] | IC50, cell viability 72 h [12] | IC50, cell viability 72 h [13] | IC50, cell viability 72 h [14] | IC50, cell viability 72 h [15] | IC50, cell viability 72 h [16] | IC50, cell viability 72 h [17] | IC50, cell viability 72 h [18] | IC50, cell viability 72 h [19] | IC50, cell viability 72 h [20] | IC50, cell viability 72 h [21] | IC50, cell viability 72 h [22] | IC50, cell viability 72 h [23] | IC50, cell viability 72 h [24] | IC50, cell viability 72 h [25] | IC50, cell viability 72 h [26] | IC50, cell viability 72 h [27] | IC50, cell viability 72 h [28] | IC50, cell viability 72 h [29] | IC50, cell viability 72 h [30] | IC50, cell viability 72 h [31] | IC50, cell viability 72 h [32] | IC50, cell viability 72 h [33] | IC50, cell viability 72 h [34] | IC50, cell viability 72 h [35]
1 | P31-FUJ (Acute Myeloid Leukemia) | > 10 µM | 2.41 µM | 0.024 µM | > 10 µM | 0.534 µM | > 3 µM | 0.148 µM | 0.243 µM | 2.76 µM | > 10 µM | > 20 µM | 0.00272 µM | > 10 µM | 0.0117 µM | 0.616 µM | 0.179 µM | 3.31 µM | > 1 µM | 0.157 µM | > 10 µM | > 10 µM | 1.68 µM | 0.00509 µM | 1.29 µM | > 2 µM | 0.758 µM | 1.57 µM | 0.255 µM | 1.74 µM | > 0.3 µM | 0.0831 µM | 8.97 µM | > 0.001 µM | > 10 µM | 1.06 µM
2 | SK-LMS-1 (Other Solid Carcinomas) | > 10 µM | > 10 µM | > 1 µM | 7.78 µM | > 10 µM | > 3 µM | > 1 µM | > 1 µM | 4.43 µM | > 10 µM | > 20 µM | 0.386 µM | > 10 µM | 0.00812 µM | 0.484 µM | 0.0174 µM | 4.11 µM | > 1 µM | > 1 µM | > 10 µM | > 10 µM | > 10 µM | 0.0161 µM | > 10 µM | > 2 µM | > 1 µM | 4.53 µM | 0.511 µM | 9.41 µM | > 0.3 µM | 1.63 µM | > 10 µM | > 0.001 µM | > 10 µM | 8.33 µM
3 | SK-MEL-1 (Melanoma) | > 10 µM | > 10 µM | > 1 µM | > 10 µM | > 10 µM | > 3 µM | > 1 µM | > 1 µM | > 10 µM | > 10 µM | > 20 µM | 0.659 µM | > 10 µM | 0.135 µM | 0.00525 µM | > 0.3 µM | > 10 µM | > 1 µM | > 1 µM | > 10 µM | > 10 µM | > 10 µM | > 3 µM | > 10 µM | > 2 µM | > 1 µM | 0.846 µM | > 1 µM | > 10 µM | > 0.3 µM | > 3 µM | 0.509 µM | > 0.001 µM | > 10 µM | > 10 µM
4 | SK-UT-1 (Other Solid Carcinomas) | > 10 µM | > 10 µM | > 1 µM | > 10 µM | 3.42 µM | > 3 µM | 0.694 µM | > 1 µM | 3.4 µM | > 10 µM | > 20 µM | 0.0216 µM | > 10 µM | 0.0227 µM | > 1 µM | 0.00912 µM | 8.85 µM | > 1 µM | > 1 µM | > 10 µM | > 10 µM | > 10 µM | 0.0282 µM | 4.17 µM | > 2 µM | > 1 µM | > 5 µM | 0.971 µM | > 10 µM | > 0.3 µM | 1.1 µM | > 10 µM | > 0.001 µM | > 10 µM | > 10 µM
5 | SLVL (B-Cell Non-Hodgkin's Lymphoma) | > 10 µM | 4.58 µM | 0.195 µM | > 10 µM | 2.52 µM | > 3 µM | 0.101 µM | 0.428 µM | 0.85 µM | > 10 µM | 1.56 µM | 0.0199 µM | > 10 µM | 0.00235 µM | 0.402 µM | 0.0151 µM | 5.56 µM | > 1 µM | > 1 µM | > 10 µM | > 10 µM | > 10 µM | 0.00606 µM | 3.76 µM | 1.81 µM | > 1 µM | > 5 µM | 0.0768 µM | 7.08 µM | > 0.3 µM | 0.836 µM | 9.51 µM | > 0.001 µM | > 10 µM | 0.148 µM
